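Tested at 5 concentrations; 48 h exposure; 96-well plates; endpoints linearly interpolated, else capped at highest concentration. TGI is the concentration that stops growth completely.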
Tests used:
Experiment in all cases: DTP human tumour cell line panel, 48 h
HT29 colon = tested on: HT29 colon
NCI-H522 lung = tested on: NCI-H522 lung
HS 578T breast = tested on: HS 578T breast
A498 renal = tested on: A498 renal
COLO 205 colon = tested on: COLO 205 colon
T-47D breast = tested on: T-47D breast
HOP-92 NSCLC = tested on: HOP-92 NSCLC
MDA-MB-435 = tested on: MDA-MB-435
SNB-19 CNS = tested on: SNB-19 CNS
NCI/ADR-RES ovarian = tested on: NCI/ADR-RES ovarian
CCRF-CEM leukemia = tested on: CCRF-CEM leukemia
UACC-257 melanoma = tested on: UACC-257 melanoma
KM12 colon = tested on: KM12 colon
MOLT-4 leukemia = tested on: MOLT-4 leukemia
A549 NSCLC = tested on: A549 NSCLC
OVCAR-3 ovarian = tested on: OVCAR-3 ovarian
NCI-H23 lung = tested on: NCI-H23 lung
HCT-116 colon = tested on: HCT-116 colon
HL-60(TB) leukemia = tested on: HL-60(TB) leukemia
SW-620 colon = tested on: SW-620 colon
SK-MEL-5 melanoma = tested on: SK-MEL-5 melanoma
RPMI-8226 leukemia = tested on: RPMI-8226 leukemia
SK-MEL-2 melanoma = tested on: SK-MEL-2 melanoma
OVCAR-5 ovarian = tested on: OVCAR-5 ovarian
MALME-3M melanoma = tested on: MALME-3M melanoma
SN12C renal = tested on: SN12C renal
SK-OV-3 ovarian = tested on: SK-OV-3 ovarian
SK-MEL-28 melanoma = tested on: SK-MEL-28 melanoma
SF-268 CNS = tested on: SF-268 CNS
IGROV1 ovarian = tested on: IGROV1 ovarian
NCI-H460 lung = tested on: NCI-H460 lung
786-0 renal = tested on: 786-0 renal
TK-10 renal = tested on: TK-10 renal
K-562 leukemia = tested on: K-562 leukemia
PC-3 prostate = tested on: PC-3 prostate
MDA-MB-231 breast = tested on: MDA-MB-231 breast
ACHN renal = tested on: ACHN renal
SNB-75 CNS = tested on: SNB-75 CNS
LOX IMVI melanoma = tested on: LOX IMVI melanoma
UO-31 renal = tested on: UO-31 renal
HCC-2998 colon = tested on: HCC-2998 colon
MCF7 breast = tested on: MCF7 breast
RXF 393 renal = tested on: RXF 393 renal
NCI-H226 lung = tested on: NCI-H226 lung
UACC-62 melanoma = tested on: UACC-62 melanoma
CAKI-1 renal = tested on: CAKI-1 renal
HOP-62 NSCLC = tested on: HOP-62 NSCLC
EKVX NSCLC = tested on: EKVX NSCLC
MDA-N = tested on: MDA-N
DU-145 prostate = tested on: DU-145 prostate
OVCAR-8 ovarian = tested on: OVCAR-8 ovarian
U251 CNS = tested on: U251 CNS
OVCAR-4 ovarian = tested on: OVCAR-4 ovarian
HCT-15 colon = tested on: HCT-15 colon
SF-295 CNS = tested on: SF-295 CNS
M14 melanoma = tested on: M14 melanoma
SF-539 CNS = tested on: SF-539 CNS

Measured: TGI

CN(CCCNCc1ccccn1)Cc1ccccc1O
97.8 µM: NCI-H226 lung
19.8 µM: UO-31 renal
68.5 µM: SNB-19 CNS
94.4 µM: HT29 colon | COLO 205 colon
43.2 µM: UACC-62 melanoma
42.3 µM: ACHN renal
64.8 µM: TK-10 renal
54.7 µM: SF-295 CNS
55.6 µM: NCI-H23 lung
92.2 µM: UACC-257 melanoma
95.2 µM: NCI/ADR-RES ovarian
51.6 µM: SK-MEL-5 melanoma
not listed: M14 melanoma | SF-539 CNS
> 100 µM: all other assays above

Cc1cn(CCCC2=NCCCN2)c(=O)[nH]c1=O
not listed: HL-60(TB) leukemia
> 100 µM: all other assays above

— PubChem BioAssay (NCI)
